In US20040146509A1, “Methods for improvement of lung function using TGF-beta inhibitors” (priority 2002, published 2004) one finds lung hydroxyproline content data, which are given here for 1 compound.

The assay deals with bleomycin-induced lung fibrosis. Briefly: Lung hydroxyproline content following bleomycin-induced lung fibrosis (14 days). It is filed as in vivo, rat. The settings on record: rats, bleomycin intratracheal day 0; day 1-14: Compound B 30 mg/kg oral three times a day, Triamcinolone 8 mg/kg i.p. every other day; versus bleo+saline; FIG. 8. The procedure:
Male Sprague-Dawley rats weighing 225 to 250 were purchased from Charles River Laboratories, Inc. Rats were housed in groups of two in the animal facility provided with filtered air and constant temperature and humidity. All animal maintenance was in accordance with Scios' guidelines for animal welfare. The rats were allowed to acclimate to the new environment for one week before all treatment. A 12:12 hour light-dark cycle was maintained, and the animals had free access to ad libitum food and water.
Day 0: To induce pulmonary fibrosis, rats were intubated with 0.5 ml of saline or 0.5 ml of 1.0 unit/ml of bleomycin by intratracheal injection under anesthesia. The anesthetic solution used is a mixture of 0.4 ml of ketamine (100 mg/ml) and 0.25 ml of xylazine (20 mg/ml) at a dose of 1.3 ml/kg.
Group 2 & 3: Rats were weighed and orally dosed with 5 ml/kg of saline three times a day […]
To estimate the total amount of collagen in fibrotic lungs, the hydroxyproline content of the whole lung was measured in each group according to the method described by Woessner Biochim Biophys Acta. […]
Briefly, lungs were harvested and homogenized in 15 ml of 1×PBS with a Polytron homogenizer. […] The hydroxyproline content was the measured using the method of Woessner.
The data were analyzed using a one-way analysis of variance (ANOVA) with a Bonferroni's multiple comparisons post tests. […]

Regarding `C[C@]12C=CC(=O)C=C1CC[C@H]1[C@@H]3C[C@@H](O)[C@](O)(C(=O)CO)[C@@]3(C)C[C@H](O)[C@@]12F` [Triamcinolone], the lung hydroxyproline content result is given as “significantly reducing lung hydroxyproline content”.
